“And” between values parts separate entries of the source, which are not always exact repeats. Equal entries are not always repeated.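 Growth conditions: 96-well plates. Treatment: test compound, 48 hours, 5 concentrations. Analysis: linear interpolation between bracketing concentrations; unreached endpoints set to highest concentration. At the GI50, growth is halved. At the TGI there is no net growth.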
Legend:
Assay in all cases: NCI anticancer screen, dose series, 48 h
SN12C renal = test system: SN12C renal
A498 renal = test system: A498 renal
KM20L2 colon = test system: KM20L2 colon
LXFL 529 NSCLC = test system: LXFL 529 NSCLC
CAKI-1 renal = test system: CAKI-1 renal
DMS 114 small cell lung = test system: DMS 114 small cell lung
786-0 renal = test system: 786-0 renal
OVCAR-8 ovarian = test system: OVCAR-8 ovarian
HOP-62 NSCLC = test system: HOP-62 NSCLC
HS 578T breast = test system: HS 578T breast

Row | SMILES | TGI (SN12C renal) | TGI (A498 renal) | TGI (KM20L2 colon) [µM] | TGI (LXFL 529 NSCLC) [µM] | TGI (CAKI-1 renal) [µM] | TGI (DMS 114 small cell lung) [µM] | TGI (786-0 renal) | TGI (OVCAR-8 ovarian) | TGI (HOP-62 NSCLC) | GI50 (SN12C renal) [µM] | GI50 (A498 renal) [µM] | GI50 (KM20L2 colon) [µM] | GI50 (LXFL 529 NSCLC) [µM] | GI50 (786-0 renal) [µM] | GI50 (OVCAR-8 ovarian) [µM] | GI50 (HOP-62 NSCLC) [µM] | GI50 (CAKI-1 renal) [µM] | GI50 (DMS 114 small cell lung) [µM] | GI50 (HS 578T breast) [µM] | TGI (HS 578T breast)
1 | COc1cc(/C=N/N=C(\N)NO)c([N+](=O)[O-])cc1OC | > 100 µM | > 100 µM | > 100 | > 100 | 76.2 | 46.2 | > 100 µM | > 100 µM | > 100 µM | – | – | – | – | – | – | – | – | – | – | –
2 | C=C1C(OC(C)=O)CC(OC(C)=O)C2(C)C(OC(C)=O)C(OC(C)=O)C3=C(C)C(OC(=O)/C=C/c4ccccc4)CC(C(OC(C)=O)C12)C3(C)C (stereo unspecified) | > 100 µM | > 100 µM | > 100 | > 100 | > 100 | > 100 | > 100 µM | > 100 µM | > 100 µM | – | – | – | – | – | – | – | – | – | – | –
3 | CC1=CCCC2C(C=O)(C1)CC(C)C2(CO)CC/C(=C/CO)CO (stereo unspecified) | > 100 µM | > 100 µM | – | > 100 | > 100 | > 100 | > 100 µM | > 100 µM | – | – | – | – | – | – | – | – | – | – | – | –
4 | Nc1c2ccccc2nc2c(C(=O)Nc3ccc(S(N)(=O)=O)cc3)cccc12 | > 100 µM | > 100 µM | > 100 | > 100 | > 100 | > 100 | > 100 µM | > 100 µM | > 100 µM | – | – | – | – | – | – | – | – | – | – | –
5 | CC(=O)Oc1ccc2c(c1)C(=O)c1nc(C)c(C)nc1C2=O | > 100 µM | > 91.7 µM | > 100 | > 100 | > 100 | > 76.4 | > 96.5 µM | > 100 µM | > 100 µM | – | – | – | – | – | – | – | – | – | – | –
6 | O=C1NC2C(O)CCCCC2C12CCCCC2 (stereo unspecified) | > 100 µM | > 100 µM | – | > 100 | > 100 | > 100 | > 100 µM | > 100 µM | > 100 µM | – | – | – | – | – | – | – | – | – | – | –
7 | CC(=O)[O-].N.N.N.N.[Co+3].[O-][Cl+3]([O-])([O-])[O-].[OH3+] | > 100 µM | > 100 µM | > 100 | > 100 | – | – | > 100 µM | > 100 µM | > 100 µM | > 100 | > 100 | > 100 | > 100 | > 100 | > 100 | > 100 | – | – | – | –
8 | COc1ccc2c(c1)CN1CCc3c(cc(OC)c(OC)c3OC)C1C2 (stereo unspecified) | > 100 µM | – | > 100 | > 100 | > 100 | > 100 | > 100 µM | > 100 µM | > 100 µM | – | – | – | – | – | – | – | – | – | – | –
9 | O=c1c2cc3ccccc3n2c(=O)c2cc3ccccc3n12 | > 100 µM | > 100 µM | > 100 | > 100 | > 100 | > 100 | > 100 µM | > 100 µM | – | – | – | – | – | – | – | – | – | – | – | –
10 | C[CH2][Sn]([CH2]C)([O]C(=O)c1ccc(F)cc1)[O]C(=O)c1ccc(F)cc1 | > 100 µM | 36.3 µM | > 100 | 21.1 | 16.3 | 39.9 | 35.1 µM | > 79.2 µM | > 100 µM | 36 | 16.8 | 72.6 | 7.84 | 18.8 | > 52.9 | 62.6 | 4.05 | 18.8 | – | –
11 | CCC1=C(CC2NCCc3ccccc32)CC2c3cc(OC)c(OC)cc3CCN2C1 (stereo unspecified) | 35.6 µM and 7.34 µM | 19.6 µM and 5.8 µM | 26.5 | > 100 | 15.2 | – | 17.1 µM and 2.9 µM | 26.5 µM and 19.2 µM | 17.1 µM and 4.65 µM | 4.92 | 4.25 | – | – | 4.04 | 3.93 | 3.6 | 3.28 | – | 3.07 | 12.8 µM and 3.73 µM
12 | O=C([O-])CC(=O)[O-].[NH-][C@@H]1CCCC[C@H]1[NH-].[Pt+4] | > 100 µM | > 81.5 µM | > 100 | > 100 | > 100 | – | > 100 µM | > 100 µM | > 100 µM | 15 | 20.7 | – | 25.2 | 13.2 | 24.5 | > 27.1 | 3.53 | – | 19.6 | > 100 µM
13 | CC[PH+](CC)CC.[Cl][Au] | 3.55 µM | – | 8.73 | 1.07 | 2.64 | – | 2.74 µM | 5.21 µM | 33.7 µM | 1.82 | – | 4.25 | 0.481 | 1.42 | 2.19 | 19.4 | 1.18 | – | – | –
14 | O/N=C/c1ccc(O)c(O)c1 | > 100 µM | > 100 µM | > 100 | > 100 | > 100 | > 100 | > 100 µM | > 100 µM | > 100 µM | – | – | – | – | – | – | – | – | – | – | –
15 | CC1c2[nH]c3ccccc3c2CCN1O (stereo unspecified) | > 100 µM | > 100 µM | > 100 | > 100 | > 100 | > 100 | > 100 µM | > 100 µM | – | – | – | – | – | – | – | – | – | – | – | –
16 | CC(=O)NN1C(=O)C(Cc2ccccc2)c2ccccc21 (stereo unspecified) | > 100 µM | > 100 µM | > 100 | – | > 100 | > 100 | > 100 µM | > 100 µM | > 100 µM | – | – | – | – | – | – | – | – | – | – | –
17 | COc1cc2cnc3c4cc(OCc5ccccc5)ccc4ccc3c2cc1OC | > 100 µM | – | > 100 | > 100 | > 100 | 80.4 | 44.5 µM | > 100 µM | 76.5 µM | – | – | – | – | – | – | – | – | – | – | –
18 | CCC[CH2][Sn]1([CH2]CCC)[S]CC[N]1S(=O)(=O)c1ccc(C)cc1 | – | – | 4.46 | 1.12 | 1.96 | 2.09 | 2.53 µM | 4.16 µM | 3.83 µM | – | – | 2.27 | 0.33 | 1.26 | 1.63 | 2.22 | 0.675 | 0.659 | – | –
19 | O=C[C@@H](CO)O[C@H](C=O)n1cnc2c(=O)[nH]cnc21 | 1380 µM | 2150 µM | 2130 | – | 1590 | 202 | 2010 µM | 2020 µM | 630 µM | – | – | – | – | – | – | – | – | – | – | 2390 µM
20 | O=P(O)(O)OCC1OC(n2cnc3c(NCc4ccccc4)ncnc32)C(O)C1O (stereo unspecified) | > 100 µM | 7.44 µM | – | – | 14.3 | – | > 67.6 µM | 6.92 µM | 27.9 µM | 0.509 | 2.05 | – | – | 2.83 | 0.587 | 1.74 | 1.4 | – | 1.02 | 6.1 µM

Reference: PubChem BioAssay (NCI)
